Measured values published in patent US20120202819A1, “COMBINATION THERAPY USING A BETA 3 […] RECEPTOR AGONISTS AND AN […] AGENT” (Merck Sharp & Dohme Corporation, priority 2009, published 2012).
Where two headings read alike, the source gives them in different places.

Assays:
[1] = tested on: distention-induced rhythmic bladder contraction; experiment: Distention-induced rhythmic bladder contraction in anesthetized female rats; assay type: in vivo, SD rats; details: iv, single dosing, urethane-anesthetized female rats
Protocol: • OXY, 0.01, 0.03, 0.1 mg/kg, iv; […].
Next, combination dosing regimens shown below in Table 7 were conducted to compose an isobologram. There were 9 groups in total. ID20 values of OXY and CL was calculated in each combination rate.

[2] = tested on: EFS-induced isolated detrusor muscle contractions; experiment: EFS-induced contraction of isolated rat detrusor muscle strips, with isobologram analysis; set-up: species or system Sprague-Dawley rats; details: single compound, rat bladder strips, EFS
Protocol: Male adult Sprague-Dawley rats were used. After euthanizing using CO2 gas, a whole bladder was removed. Longitudinal strips (about 6 mm×3 mm) of the extratrigonal portion of the detrusor muscle were prepared. […] The strips were tied at one end to the organ bath, and connected at the other end to an isometric transducer (AD Instruments) under a resting tension of 10 mN. The responses of the preparations were recorded at a sampling rate of 10 Hz by a multiple channel data acquisition system (PowerLab, AD Instruments), and measured with an analysis software (Chart, AD Instruments). After the equilibration period for at least 60 min, each tissue strip was challenged to electrical field stimulation (EFS) at 60 Hz; duration, 0.3 ms; 3 sec; 90 V to induce contractions. Upon obtaining stable contractions with EFS, compound solution (25 μL) was applied into organ bath in a cumulative manner. After 15 min of each compound treatment, EFS was applied.
Isobologram Analysis was used to evaluate the synergic effect of a combination therapy. Isobologram Analysis provides a visual assessment of the interaction of two different agents using independent statistical analysis. The statistical analysis can be accomplished from calculations of certain potency indices from single treatment of each compound and fixed-ratio combinations for the same effect.
Isobologram for some particular effect (e.g., 50% of the maximum) in which the dose of active agent A alone is A=20 and active agent B alone is B=100. The straight line connecting these intercept points (additivity line) is the locus of all dose pairs that, based on these potencies, should give the same effect, An actual dose pair such as point Q attains this effect with lesser quantities and is synergistic (or super-additive), while the dose pair denoted by point R means greater quantities are required and is therefore sub-additive.

[3] = target: T1, muscarinic receptor M2 (Homo sapiens, UniProt P08172); details: Hegde et al.; cited from earlier work
T1 sequence (P08172 1-466): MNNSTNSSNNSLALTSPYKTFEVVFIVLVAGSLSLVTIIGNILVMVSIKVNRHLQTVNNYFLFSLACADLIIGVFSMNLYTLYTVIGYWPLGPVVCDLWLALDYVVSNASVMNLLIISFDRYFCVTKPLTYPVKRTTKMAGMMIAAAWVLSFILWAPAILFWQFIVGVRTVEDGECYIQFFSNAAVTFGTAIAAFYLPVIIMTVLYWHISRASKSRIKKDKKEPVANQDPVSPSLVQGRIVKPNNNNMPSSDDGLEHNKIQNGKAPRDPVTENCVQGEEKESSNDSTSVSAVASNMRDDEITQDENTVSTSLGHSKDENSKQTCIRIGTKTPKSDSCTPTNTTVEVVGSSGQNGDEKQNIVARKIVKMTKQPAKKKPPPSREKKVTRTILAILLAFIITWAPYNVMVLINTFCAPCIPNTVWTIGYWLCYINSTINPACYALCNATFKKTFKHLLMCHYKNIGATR

[4] = target: T2, muscarinic receptor M3 (Homo sapiens, UniProt P20309); details: Hegde et al.; cited from earlier work
[5] = target: T3, muscarinic receptor M1 (Homo sapiens, UniProt P11229); details: Hegde et al.; cited from earlier work
T3 sequence (P11229 1-460): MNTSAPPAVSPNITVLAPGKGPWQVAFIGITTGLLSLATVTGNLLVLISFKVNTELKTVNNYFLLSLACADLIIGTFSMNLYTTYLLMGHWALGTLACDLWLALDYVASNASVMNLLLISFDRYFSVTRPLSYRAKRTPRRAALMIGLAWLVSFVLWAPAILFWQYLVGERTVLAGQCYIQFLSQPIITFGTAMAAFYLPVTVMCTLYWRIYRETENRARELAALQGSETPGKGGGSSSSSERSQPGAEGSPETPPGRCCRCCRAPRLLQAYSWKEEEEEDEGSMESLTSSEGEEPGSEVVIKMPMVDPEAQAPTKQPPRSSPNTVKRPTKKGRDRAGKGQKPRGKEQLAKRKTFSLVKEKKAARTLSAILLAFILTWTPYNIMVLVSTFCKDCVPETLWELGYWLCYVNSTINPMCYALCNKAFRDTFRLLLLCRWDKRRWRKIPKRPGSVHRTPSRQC

[6] = target: T1, muscarinic receptor M2; details: Ohtake et al.; cited from earlier work
[7] = target: T3, muscarinic receptor M1; details: read-out: Ki (nM) M1, cited from earlier work
[8] = target: T2, muscarinic receptor M3; details: cited from earlier work
[9] = target: T4, muscarinic receptor M4 (Homo sapiens, UniProt P08173); details: Ohtake et al.; cited from earlier work
T4 sequence (P08173 1-479): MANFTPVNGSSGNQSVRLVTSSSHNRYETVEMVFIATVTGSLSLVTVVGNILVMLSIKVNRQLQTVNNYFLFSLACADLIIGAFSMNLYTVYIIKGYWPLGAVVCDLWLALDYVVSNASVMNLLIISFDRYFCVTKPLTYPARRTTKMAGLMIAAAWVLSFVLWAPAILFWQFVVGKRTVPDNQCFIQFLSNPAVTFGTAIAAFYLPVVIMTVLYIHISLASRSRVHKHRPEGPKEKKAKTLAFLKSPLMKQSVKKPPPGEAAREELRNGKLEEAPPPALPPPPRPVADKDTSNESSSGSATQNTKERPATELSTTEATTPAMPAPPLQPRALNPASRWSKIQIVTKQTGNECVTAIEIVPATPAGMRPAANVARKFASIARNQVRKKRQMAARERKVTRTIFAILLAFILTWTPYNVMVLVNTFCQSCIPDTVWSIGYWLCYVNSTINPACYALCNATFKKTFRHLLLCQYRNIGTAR

[10] = tested on: bladder capacity; experiment: Bladder capacity (cystometry) in anesthetized rhesus monkeys; assay type: in vivo, rhesus monkeys (Macaca mulatta); details: mean of 4-6 animals
Text: Adult female rhesus monkeys (Macaca mulatta) weighed 5.3-6.2 kg (4-7 year-old) were used. The subjects were either paired or individually housed on a 12-h light/12-h dark cycle (lights on at 7:00 AM). Their diet consisted of 2050 Teklad (Harlan Laboratories, Indianapolis, Ind.) and fresh fruit or vegetable. Water was freely available. All animals were observed daily by a veterinary technician and caretakers for signs of ill health. Subjects were repeatedly used with >13-day resting period. Monkeys were anesthetized with an intramuscular injection of either Telazol (3-5 mg/kg) or ketamine (10-20 mg/kg) followed by intravenous constant rate infusion with ketamine (0.2-0,8 mg/kg/min) using a syringe pump (552222, Harvard Apparatus, Holliston, Mass.). Animals were placed in a supine position and a triple lumen balloon transurethral catheter (7.4 Fr, Cook Medical, Bloomington, Ind.) was inserted into the bladder and the balloon was inflated with 1 mL of water to secure the tip of catheter at the bladder base. The catheter was connected with an infusion pump (Gemini PC-2TX, ALARIS Medical Systems, San Diego, Calif.) for bladder filling and a pressure transducer for intravesical pressure monitoring. Intravesical pressure was continuously recorded using a multiple channel data acquisition system (Power lab, AD Instruments, Biopac systems, Colorado Springs, Colo.) at a sampling rate of 20 Hz. After confirming bladder emptiness by an ultrasonography (Logiq e vet, GE Medical Systems, Waukesha, Wis., FIG. 1A), saline was intravesically infused at 15 mL/min. When the steep rise in pressure indicative of the micturition reflex was observed, intravesical infusion was stopped and the bladder was manually emptied with a 60 ml syringe.
After two baseline cystometry readings, drug was intravenously administered three times using a rising dose paradigm with a cystometry performed 10 min after each dose. Bladder capacity was measured for each cystometry and % change from the baseline capacity was calculated. As used herein, the term “baseline capacity” or “baseline” means the average bladder capacity from two pre-dose measurements.
The reported results are mean values of % change from baseline in 4-6 animals.

T2 sequence (P20309 whole entry): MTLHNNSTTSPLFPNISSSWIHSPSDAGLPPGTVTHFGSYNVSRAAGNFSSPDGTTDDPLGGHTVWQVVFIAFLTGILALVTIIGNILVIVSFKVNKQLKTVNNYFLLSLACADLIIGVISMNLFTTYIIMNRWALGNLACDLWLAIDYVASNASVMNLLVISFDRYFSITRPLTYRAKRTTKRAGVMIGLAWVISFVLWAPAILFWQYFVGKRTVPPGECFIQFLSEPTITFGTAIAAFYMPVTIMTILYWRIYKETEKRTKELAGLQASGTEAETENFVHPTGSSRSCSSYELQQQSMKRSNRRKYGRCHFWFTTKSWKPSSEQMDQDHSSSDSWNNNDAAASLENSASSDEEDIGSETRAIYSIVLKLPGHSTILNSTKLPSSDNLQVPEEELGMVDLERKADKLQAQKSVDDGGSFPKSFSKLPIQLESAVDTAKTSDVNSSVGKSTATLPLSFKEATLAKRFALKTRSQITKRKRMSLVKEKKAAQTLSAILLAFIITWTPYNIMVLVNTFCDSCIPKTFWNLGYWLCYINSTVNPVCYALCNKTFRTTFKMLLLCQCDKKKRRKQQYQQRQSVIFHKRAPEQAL

C[C@H](Cc1ccc2c(c1)OC(C(=O)[O-])(C(=O)[O-])O2)NC[C@H](O)c1cccc(Cl)c1.[Na+].[Na+] [CL316243, disodium (R,R)-5-(2-((2-(3-ehlorophenyl)-2-hydroxyethyl)-amino)propyl)-1,3-benzodioxole-2,3-dicarboxylate]
ID20 (dose decreasing amplitude by 20%) [1]: 0.024 MPK | IC25 (concentration which induced 25% inhibition of detrusor contraction) [2]: 0.00286 µM

O=C(O[C@H]1C[C@H]2CC[C@@H](C1)[N+]21CCCC1)C(O)(c1ccccc1)c1ccccc1 [Trospium]
Ki [3]: 0.65 nM | Ki [4]: 0.5 nM | M2/M3 ratio [4]: 1 | Ki [5]: 0.75 nM

O=C(O[C@H]1CN2CCC1CC2)N1CCc2ccccc2[C@@H]1c1ccccc1 [Solifenacin]
Ki [6]: 170 ± 37 nM | Ki [7]: 26 ± 2 nM | Ki ([8]; Ohtake et al.): 12 ± 4.4 nM | M2/M3 ratio [8]: 14 | Ki [9]: 110 ± 45 nM

CCCOC(C(=O)OC1CCN(C)CC1)(c1ccccc1)c1ccccc1 [Propiverine]
Ki [6]: 1400 ± 220 nM | Ki ([7]; Ohtake et al.): 490 ± 110 nM | Ki ([8]; Ohtake et al.): 350 ± 53 nM | M2/M3 ratio ([8]; Ohtake et al., ratio of Ki M2 to Ki M3): 4 | Ki [9]: 900 ± 200 nM

Cc1ccc(O)c([C@@H](CCN(C(C)C)C(C)C)c2ccccc2)c1 [Tolterodine, 2-[(1S)-3-(diisopropylamino)-1-phenylpropyl]-4-methylphenol]
Ki [7]: 2.7 ± 0.23 nM | Bladder capacity, % change from baseline ([10]; mono-therapy 0.01 mg/kg iv, listed as TOL): 8.6% | Bladder capacity, % change from baseline ([10]; mono-therapy 0.03 mg/kg iv, listed as TOL): 16.8% | Bladder capacity, % change from baseline ([10]; mono-therapy 0.1 mg/kg iv): 40.3% | Ki [9]: 6.6 ± 1.7 nM | IC25 (concentration which induced 25% inhibition of detrusor contraction) [2]: 0.00471 µM

CCN(CC)CC#CCOC(=O)C(O)(c1ccccc1)C1CCCCC1 (centres unmarked) [Oxybutynin, 4-diethylaminobut-2-ynyl2-cyclohexyl-2-hydroxy-2-phenyl-ethanoate]
ID20 (dose decreasing amplitude by 20%) [1]: 0.057 MPK
